Data on six compounds can be found in patent US12582721B2, “Molybdenum-based feed supplement for bees” (UNIVERSITE DE VERSAILLES—SAINT-QUENTIN-EN-YVELINES, priority 2020, dated 2026).

Some results are limits rather than exact numbers.

Series [1] in a line: Chemical stability of the complexes (solid, water, physiological medium, sugar syrup; 1H-NMR or UV-vis). The class given is physicochemical. Conditions: for Stability in a physiological medium or in a sugar syrup: physiological medium or sugar syrup with 50% by weight, very low concentrations; for Stability in water: 5×10^−3-2×10^−7 M concentration range (K—Mo2O2S2-LCys: down to micromolar concentrations). The source says: In solid form, the compounds obtained are perfectly stable in air and can be kept without any special conditions for years without any alteration.
The stabilities of the complexes in solution are studied by different techniques (^1H-NMR or UV-vis spectroscopy), the objective being to study their behavior in different media in terms of stability.

For series [2] the following is noted: cited from earlier work.
Series [3] deals with human epithelial pancreatic adenocarcinoma cells of the BxPC-3 line. The series is described as follows: Resazurin cell proliferation test, BxPC-3 cells. The class given is cell-based. From the text:
(§1) For cell culture, human cervical epithelial cells of the HeLa line, human epithelial pancreatic adenocarcinoma cells of the BxPC-3 line and healthy Madin-Darby canine kidney epithelial cells of the MDCK line were used in this study. The Resazurin cell proliferation test was applied according to the literature (S. Anoopkumar-Dukie, J. B. Carey, T. Conere, E. O'Sullivan, F. N. van Pelt, A. Allshire, Br J Radiol 2005, 78, 945, DOI: 10.1259/bjr/54004230). As an indicator of the effectiveness of the experimental compounds on cell proliferation, the median inhibitory concentration (IC50) was used. The lower the IC50 value, the higher the activity (in this case, the cytotoxicity).
(§2) Five formula I complexes were tested in this study in comparison to two reference anti-cancer compounds (“Cisplatin” and Doxorubicin complex).
Background: The colour change of resazurin is a common sign of viable cells or microbes.

For series [4], the system named is human cervical epithelial cells of the HeLa line. The series is described as follows: Resazurin cell proliferation test, HeLa cells. Type of series: cell-based.
Text: as §1, §2

In series [5] the test system is healthy Madin-Darby canine kidney epithelial cells of the MDCK line. The series is described as follows: Resazurin cell proliferation test, MDCK cells. The class given is cell-based.
Text: as §1, §2

[6] abbreviates: pancreatic cancer cells, IC50 equal to and greater than 100 μM considered no activity.
Setting [7] is: cervical cancer cells, IC50 equal to and greater than 100 μM considered no activity.
The mark [8] stands for this setting: healthy cells, IC50 equal to and greater than 100 μM considered no activity.

With `O=C([O-])CN(CCN(CC(=O)[O-])CC(=O)[O-])CC(=O)[O-].[O]=[Mo+]12[S][Mo+]1(=[O])[S]2` [[Mo2O2S2-EDTA]^2−], in series [1], the “Stability in a physiological medium or in a sugar syrup” value is “good stability” and the Stability in water result was “no sign of decomposition”.
Take `[Li]` [lithium]: the “Serum lithium concentration at which toxicity appears” value in series [2] was “greater than 2 mmol/l”.
Regarding `N[C@@H](C[S-])C(=O)[O-].N[C@@H](C[S-])C(=O)[O-].[K+].[K+].[O]=[Mo+]12[S][Mo+]1(=[O])[S]2` [K—Mo2O2S2-Cys, K2[Mo2O2S2 (LCys)2]·xH2O], the “IC50, BxPc-3” value in series [3] (setting [6]) is “Inactive”. In series [4] (setting [7]), the “IC50, HeLa” value was “Inactive”. For the same compound, in series [1], the “Stability in a physiological medium or in a sugar syrup” value was “good stability” and the Stability in water entry is reported as “without any breakdown”. Moreover, in series [5] (setting [8]), the “IC50, MDCK” value is on record as “Inactive”.
A word on the IC50: it is the concentration that gives 50% inhibition. Low values mean greater potency, high ones weaker potency. As for `COc1cccc2c1C(=O)c1c(O)c3c(c(O)c1C2=O)C[C@@](O)(C(=O)CO)C[C@@H]3O[C@H]1C[C@H](N)[C@H](O)[C@H](C)O1` [Doxorubicin, reference compound], the IC50 in series [3] (Homo sapiens, BXPC-3) was found to be 3.99 ± 7.9 µM; in series [4] (Homo sapiens, HeLa) it was 1.31 µM; in series [5] (Canis lupus familiaris, MDCK), 1.48 ± 3.1 µM.
Turning to `O=C([O-])CN(CCN(CC(=O)[O-])CC(=O)[O-])CC(=O)[O-].[O]=[Mo+]12[S][Mo+]1(=[O])[S]2.c1ccc([P+](c2ccccc2)(c2ccccc2)c2ccccc2)cc1.c1ccc([P+](c2ccccc2)(c2ccccc2)c2ccccc2)cc1` [PPh4—Mo2O2S2-EDTA], the IC50 in series [3] (setting [6]) is 59.8 ± 26.4 µM; in series [4] (setting [7]) it was ≥ 100 µM; in series [5] (setting [8]), ≥ 100 µM.
Consider `N.N.[Cl][Pt][Cl]` [Cisplatin, reference compound], for which the results for the IC50 in series [3] (setting [6]), in series [4] (setting [7]) and in series [5] (setting [8]) were 11.2 ± 1.2 µM, 3.99 ± 0.33 µM and 30.9 ± 1.1 µM, respectively.
